# Assays:
# Experiment in all cases: relative viability (nuclei count vs DMSO), 5 days (fraction); higher = more cells survive
# [1] = compound: CN(c1ncccc1CNc1nc(Nc2ccc3c(c2)CC(=O)N3)ncc1C(F)(F)F)S(C)(=O)=O + CCNC(=O)c1noc(-c2cc(C(C)C)c(O)cc2O)c1-c1ccc(CN2CCOCC2)cc1 [Luminespib] (partner 0.01 µM)
# Outline: (§1)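 Lung cancer cell lines, seeded in 1536-well plates, were treated the following day by pin tool with a single drug or with five library-drug doses (not always all listed) in √10 steps on top of a fixed anchor-drug dose. Cells were fixed and nuclei stained in one step after 5 days, and nuclei were counted. Relative viability is the nuclei count for treated wells divided by that for vehicle wells, reported as medians of duplicate plates.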
# [2] = compound: CN(c1ncccc1CNc1nc(Nc2ccc3c(c2)CC(=O)N3)ncc1C(F)(F)F)S(C)(=O)=O + COc1cc2c(Oc3ccc(NC(=O)C4(C(=O)Nc5ccc(F)cc5)CC4)cc3F)ccnc2cc1OCCCN1CCOCC1 [Foretinib] (partner 0.25 µM)
# Outline: as §1
# [3] = compound: CN(c1ncccc1CNc1nc(Nc2ccc3c(c2)CC(=O)N3)ncc1C(F)(F)F)S(C)(=O)=O + Cc1nc(Nc2ncc(C(=O)Nc3c(C)cccc3Cl)s2)cc(N2CCN(CCO)CC2)n1 [Dasatinib] (partner 0.075 µM)
# Outline: as §1
# [4] = compound: CN(c1ncccc1CNc1nc(Nc2ccc3c(c2)CC(=O)N3)ncc1C(F)(F)F)S(C)(=O)=O + Nc1ncn([C@H]2C[C@H](O)[C@@H](CO)O2)c(=O)n1 [Decitabine] (partner 2 µM)
# Outline: as §1
Cell Line,relative viability ([1]; first compound 0.01 µM),relative viability ([1]; first compound 0.03162 µM),relative viability ([1]; first compound 0.1 µM),relative viability ([1]; first compound 0.3162 µM),relative viability ([1]; first compound 1 µM),relative viability ([2]; first compound 0.01 µM),relative viability ([2]; first compound 0.03162 µM),relative viability ([2]; first compound 0.1 µM),relative viability ([2]; first compound 0.3162 µM),relative viability ([2]; first compound 1 µM),relative viability ([3]; first compound 0.01 µM),relative viability ([3]; first compound 0.03162 µM),relative viability ([3]; first compound 0.1 µM),relative viability ([3]; first compound 0.3162 µM),relative viability ([3]; first compound 1 µM),relative viability ([4]; first compound 0.01 µM),relative viability ([4]; first compound 0.03162 µM),relative viability ([4]; first compound 0.1 µM),relative viability ([4]; first compound 0.3162 µM),relative viability ([4]; first compound 1 µM)
NCI-H441,0.435,0.322,0.369,0.331,0.287,0.974,1.14,0.999,1.17,0.761,0.631,0.497,0.378,0.35,0.295,0.3,0.25,0.264,0.261,0.224
NCI-H460,0.0312,0.0306,0.0284,0.0265,0.0325,1.1,1.09,0.892,1.02,0.972,0.62,0.505,0.462,0.456,0.436,0.477,0.702,0.537,0.493,0.549
NCI-H520,0.209,0.242,0.205,0.2,0.183,0.851,0.744,0.723,0.839,0.722,0.21,0.221,0.151,0.152,0.155,0.549,0.655,0.484,0.49,0.549
NCI-H596,0.943,1.02,0.951,1.06,0.968,0.848,0.859,0.863,0.806,0.861,0.558,0.623,0.54,0.608,0.5,1.15,1.01,1.11,1.03,1.13
NCI-H647,0.127,0.163,0.122,0.103,0.119,1.18,1.04,1.14,1.1,1.22,0.146,0.193,0.127,0.151,0.125,0.425,0.51,0.498,0.544,0.502
NCI-H650,0.773,0.779,0.655,0.728,0.654,1.02,0.953,0.935,0.796,0.853,0.445,0.459,0.434,0.434,0.456,0.316,0.351,0.342,0.285,0.307
NCI-H661,0.854,0.928,0.837,0.871,0.876,1.01,1.04,0.989,0.993,0.92,0.973,0.809,0.885,0.782,0.83,0.551,0.649,0.589,0.56,0.568
NCI-H727,0.407,0.232,0.289,0.25,0.367,0.836,0.873,0.932,1,0.891,0.363,0.287,0.271,0.272,0.264,0.943,0.827,0.793,0.896,0.936
NCI-H838,0.409,0.255,0.242,0.31,0.263,1.01,1.06,1.07,0.882,0.718,0.27,0.279,0.217,0.305,0.205,0.46,0.472,0.5,0.444,0.397
NCI-H1355,0.713,0.723,0.645,0.624,0.65,0.937,1.01,1,0.884,0.907,0.757,0.76,0.75,0.606,0.645,0.368,0.36,0.337,0.404,0.379
NCI-H1395,0.766,0.703,0.682,0.558,0.658,0.985,1.12,0.952,0.849,0.954,0.461,0.374,0.359,0.414,0.386,0.711,0.767,0.678,0.771,0.785
NCI-H1437,1.14,1.16,1.12,0.993,0.687,1.31,1.2,1.21,1.11,0.988,0.401,0.391,0.426,0.204,0.427,0.535,0.661,0.502,0.498,0.422
NCI-H1650,0.203,0.207,0.194,0.193,0.198,1.12,1.25,1.38,1.19,0.971,0.303,0.367,0.339,0.303,0.327,0.502,0.474,0.513,0.426,0.47
NCI-H1651,1.03,0.957,0.708,0.688,0.667,0.817,0.88,0.906,0.765,0.784,0.47,0.374,0.38,0.316,0.282,0.657,0.695,0.623,0.713,0.576
NCI-H1666,0.936,0.939,0.923,0.786,0.612,0.977,0.874,0.851,0.976,0.843,0.804,0.778,0.961,0.935,0.603,0.729,0.749,0.642,0.666,0.628
NCI-H1734,0.198,0.178,0.184,0.227,0.18,0.93,0.911,0.796,0.828,0.712,0.423,0.436,0.399,0.339,0.34,0.473,0.535,0.571,0.524,0.55

Cell Line,relative viability ([1]; first compound 0.01 µM),relative viability ([1]; first compound 0.03162 µM),relative viability ([1]; first compound 0.1 µM),relative viability ([1]; first compound 0.3162 µM),relative viability ([1]; first compound 1 µM),relative viability ([2]; first compound 0.01 µM),relative viability ([2]; first compound 0.03162 µM),relative viability ([2]; first compound 0.1 µM),relative viability ([2]; first compound 0.3162 µM),relative viability ([2]; first compound 1 µM),relative viability ([3]; first compound 0.01 µM),relative viability ([3]; first compound 0.03162 µM),relative viability ([3]; first compound 0.1 µM),relative viability ([3]; first compound 0.3162 µM),relative viability ([3]; first compound 1 µM),relative viability ([4]; first compound 0.01 µM),relative viability ([4]; first compound 0.03162 µM),relative viability ([4]; first compound 0.1 µM),relative viability ([4]; first compound 0.3162 µM),relative viability ([4]; first compound 1 µM)
NCI-H1755,0.531,0.41,0.479,0.389,0.419,0.88,0.983,0.9,0.832,0.833,0.414,0.412,0.329,0.365,0.325,0.682,0.728,0.721,0.646,0.707
NCI-H1793,0.218,0.181,0.212,0.175,0.138,0.58,0.641,0.667,0.449,0.523,0.375,0.336,0.409,0.311,0.353,0.494,0.563,0.458,0.45,0.432
NCI-H1915,0.821,0.636,0.711,0.729,0.729,1.13,1.06,1.04,1.12,1.04,0.296,0.269,0.292,0.295,0.309,0.278,0.258,0.264,0.247,0.256
NCI-H1944,0.779,0.926,0.818,0.732,0.828,0.771,0.941,0.87,0.938,0.79,0.232,0.231,0.202,0.252,0.276,0.448,0.474,0.467,0.432,0.445
NCI-H1975,0.243,0.259,0.239,0.389,0.194,0.962,0.984,0.959,0.84,0.929,0.359,0.272,0.28,0.27,0.262,0.423,0.403,0.432,0.417,0.436
NCI-H1993,0.859,0.849,0.752,0.755,0.65,0.692,0.994,0.744,0.75,0.767,0.601,0.48,0.506,0.78,0.593,0.624,0.609,0.56,0.574,0.605
NCI-H2009,1.04,1.02,1.03,0.683,0.948,1.17,1.22,1.27,1.27,0.965,0.23,0.217,0.244,0.229,0.238,0.425,0.362,0.372,0.4,0.448
NCI-H2023,0.696,0.79,0.597,0.643,0.611,0.791,0.715,0.731,0.752,0.642,0.476,0.588,0.428,0.432,0.448,0.23,0.259,0.218,0.234,0.202
NCI-H2085,0.394,0.681,0.457,0.418,0.36,0.878,0.925,0.906,0.824,0.748,0.215,0.232,0.178,0.183,0.152,0.545,0.577,0.547,0.548,0.522
NCI-H2087,0.164,0.239,0.162,0.185,0.185,1.04,1.03,1.02,1.2,0.974,0.828,0.795,0.61,0.542,0.451,0.312,0.255,0.256,0.36,0.299
NCI-H2126,0.905,0.9,0.778,0.941,0.761,1.34,1.13,1.06,1.19,1.08,0.55,0.559,0.469,0.381,0.347,0.623,0.615,0.564,0.557,0.53
NCI-H2170,0.722,0.799,0.707,0.749,0.424,1.02,1.02,1.01,1.02,0.949,0.455,0.526,0.461,0.504,0.404,0.528,0.463,0.417,0.459,0.448
NCI-H2342,0.702,0.736,0.643,0.632,0.723,1.15,0.976,0.927,0.953,0.999,0.32,0.306,0.306,0.286,0.297,0.802,0.728,0.631,0.742,0.717
NCI-H2347,0.643,0.557,0.243,0.592,0.389,0.612,0.992,1.1,0.555,0.616,0.283,0.313,0.331,0.297,0.283,0.655,0.598,0.587,0.593,0.57
NCI-H2405,0.791,0.723,0.622,0.464,0.52,1.02,1.07,0.976,0.886,0.82,0.229,0.197,0.184,0.22,0.218,0.766,0.735,0.67,0.681,0.648
NCI-H3122,0.0983,0.101,0.0795,0.0863,0.0795,1.01,0.876,0.916,0.902,0.929,0.802,1.02,0.787,0.746,0.764,0.445,0.423,0.395,0.429,0.403
